Source: patent publication US11737462B2, “Methods for modulating plant response to environmentally-induced stress” (Howard University, priority 2012, dated 2023)

Assays:
RACK1A:GFP = RACK1A:GFP expression in transformed Arabidopsis plants; assay type: in vivo, Arabidopsis thaliana; conditions: 60 μM compound with 250 mM salt for 6 hours
Protocol: Arabidopsis plants transformed with a RAC[…]:GFP construct were analyzed to determine the effect of SD-29 on expression of RAC[…]. The experimental plant was treated with 60 μM SD-29 with 250 mM salt for 6 hours. Controls were treated with and without salt. […] It is quite possible that downregulation of RAC[…] expression by SD-29 may be the cellular mechanism that allow the plants to withstand salt stress.

RACK1A = RACK1A (Arabidopsis thaliana, UniProt O24456); test: in-vitro assay of tyrosine phosphorylation (Y248) based homodimerization of RACK1A; assay type: biochemical
Chain of RACK1A (O24456 whole entry): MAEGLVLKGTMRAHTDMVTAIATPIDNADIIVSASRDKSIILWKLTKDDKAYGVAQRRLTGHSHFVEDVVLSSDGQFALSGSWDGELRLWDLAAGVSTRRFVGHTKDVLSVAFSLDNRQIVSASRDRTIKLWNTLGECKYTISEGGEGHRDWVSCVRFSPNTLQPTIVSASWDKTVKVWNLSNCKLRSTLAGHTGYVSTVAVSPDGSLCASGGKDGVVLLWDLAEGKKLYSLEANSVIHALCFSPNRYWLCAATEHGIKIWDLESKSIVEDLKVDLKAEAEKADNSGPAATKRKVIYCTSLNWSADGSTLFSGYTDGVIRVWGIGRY
Text: A crystal structure of Arabidopsis thaliana RACK1 protein has been reported. Deducing the crystal structure of the Arabidopsis RACK1A protein highlighted the potential functional residues of the protein. Noteworthy in the structure was the functionally conserved tyrosine phosphorylation residue (Y248) that has been implicated in RACK1A function. Therefore, it was undertaken to identify a chemical inhibitor of Y248 phosphorylation that would serve as a potential “anti-stress” compound in countering environmental stresses in plants. In order to identify small compounds occupying the Y248 pocket, docking simulations with a subset of 30,000 compounds were performed. Based on ranking with an energy cut-off of 25 kcal/mol, 3,011 compounds were then selected. Upon further re-ranking, 46 lead compounds were identified and 11 compounds were screened for their efficacy in an in-vitro assay. […] Those six compounds include SD-29, SD-29-9, SD-29-11, SD-29-22, SD-34, and SD-125.

rice RACK1A = target: T1, rice RACK1A (Oryza sativa subsp. japonica, UniProt P49027); test: western blot with anti-pY248 of rice leaf lysates under salt stress; assay type: in vivo; conditions: 60 μM compound and 250 mM NaCl, 75 μg protein per lane
T1 construct: from tissue; host or cells: rice leaves
T1 sequence (P49027 whole entry): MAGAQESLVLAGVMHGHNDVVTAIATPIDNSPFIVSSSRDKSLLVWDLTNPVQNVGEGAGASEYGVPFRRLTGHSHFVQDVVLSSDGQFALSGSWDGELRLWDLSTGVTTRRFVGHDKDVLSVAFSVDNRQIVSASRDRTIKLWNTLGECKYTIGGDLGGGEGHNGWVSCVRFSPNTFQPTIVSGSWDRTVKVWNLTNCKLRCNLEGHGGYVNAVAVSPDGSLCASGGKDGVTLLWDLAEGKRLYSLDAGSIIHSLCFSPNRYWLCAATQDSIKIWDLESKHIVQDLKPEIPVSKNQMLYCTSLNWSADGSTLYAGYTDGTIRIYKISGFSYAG
Protocol: The rice leaves were also analyzed by Western blot. Lysates were prepared from the leaves and western blot analysis was carried out using standard methods. 75 μg protein were loaded per lane. The membrane containing transferred proteins were probed with anti-pY248, which is an antibody raised to specifically detect phosphorylated tyrosine at residue 248 of RACK1A.

rice detached leaves = test: salt-induced stress in rice detached leaves; assay type: in vivo; conditions: seven days
Protocol: In the examples described herein, the test compounds (e.g., SD-29 or analogs thereof) were dissolved in dimethyl sulfoxide (DMSO) to provide a 20 mM concentration. Micromolar concentrations were then prepared as needed by addition to the water incubation media. Unless stated otherwise, the experimental plants were incubated with the roots immersed in the water containing the compound. The control plants received only DMSO in the same amount as that of the compound. The effect of SD-29 on modulating salt-induced stress was evaluated with rice detached leaves at room temperature (about 24° C.) for seven days in a water incubation medium. All plants received sufficient incubation medium to last the seven days. Plant A (left most) received 250 mM NaCl plus DMSO, Plant B (right of Plant A) received 60 μM SD-29 and 250 mM NaCl, and plant D received 60 μM SD-29 in the incubation medium. The incubation medium of Plant C was untreated. The rice plant leaves were photographed directly after seven days. […] Much of the chlorophyll of plant A (salt treatment alone) was degraded, while SD-29 treated leaves (Leaf B) maintained the chlorophyll level even in the presence of the same amount of salt.

Arabidopsis plants = test: salt stress (150 mM salt) in Arabidopsis plants; assay type: in vivo, Arabidopsis thaliana; conditions: 100 μM compound plus 150 mM salt, two weeks, 22° C., vs DMSO plus salt
Protocol: In the examples described herein, the test compounds (e.g., SD-29 or analogs thereof) were dissolved in dimethyl sulfoxide (DMSO) to provide a 20 mM concentration. Micromolar concentrations were then prepared as needed by addition to the water incubation media. Unless stated otherwise, the experimental plants were incubated with the roots immersed in the water containing the compound. The control plants received only DMSO in the same amount as that of the compound. In the first experiment, Arabidopsis plants were treated with 150 mM salt for two weeks. One plant in each group was treated with 100 μM SD-29 plus 150 mM salt and the other plant in each group was treated with DMSO plus 150 mM salt. […] The plants were treated with the indicated treatment twice during the experiment.

Arabidopsis RACK1A = target: T2, Arabidopsis RACK1A (Arabidopsis thaliana, UniProt O24456); test: western blot of RACK1A tyrosine phosphorylation in Arabidopsis leaves under heat stress; assay type: in vivo
T2 construct: from tissue; host or cells: Arabidopsis plant leaves
T2 sequence (O24456 whole entry): as the sequence (O24456 whole entry) above
Protocol: In the examples described herein, the test compounds (e.g., SD-29 or analogs thereof) were dissolved in dimethyl sulfoxide (DMSO) to provide a 20 mM concentration. Micromolar concentrations were then prepared as needed by addition to the water incubation media. Unless stated otherwise, the experimental plants were incubated with the roots immersed in the water containing the compound. The control plants received only DMSO in the same amount as that of the compound. In the second group (FIG. 3), Arabidopsis plants were held at 42° C. for six hours and compared to control plants held at about 22° C. The Arabidopsis plant in the experimental group was treated with 60 μM SD-29 in water. A control plant received water and DMSO. Lysates were then prepared from the leaves and western blots were performed using immobilized mouse anti-pTRY and Arabidopsis-anti RAC[…]. […] A similar experiment was carried out using analog SD-29-9 and SD-29 at 42° C. for three hours. […] A western blot was then performed using an antibody that was raised targeting phosphorylated […] residue of RAC[…].

chloroplastic Cu—Zn SOD = test: native gel assay of SOD activity in rice leaves; assay type: in vivo; conditions: set up as FIG. 5: 60 μM compound, 250 mM NaCl; wild-type and RACK1 over-expressing (OX) rice
Protocol: Native gel analysis was performed on a lysate prepared from the pepper plant leaves in FIG. 8. The gel is stained for detecting enzymatic activity of different isoforms of superoxide dismutase—key enzymes that detoxify the reactive oxygen species which usually develop during the stress conditions. […] Therefore, it appears that SD-29 may help detoxify the cellular reactive oxygen species generated during the salt stress conditions. The wild-type rice plants were compared to a rice plant over-expressing rice RACK1 protein (referred to as “OX”). The OX plants were treated as described in this example for the wild-type rice plant. Native gel assay was performed as described for FIG. 8 and the experimental set up was exactly the same as described for FIG. 5.

With `Nn1c(S)nnc1-c1ccc(F)cc1` [SD-29] the “RACK1A:GFP expression” value (RACK1A:GFP) was “down regulation of RACK1A:GFP expression”, the IC50 (RACK1A; data not shown) was 12.5 µM and the “tyrosine phosphorylation (Y248) based homodimerization of RACK1A proteins” value (RACK1A; in-vitro assay) was “prevent tyrosine phosphorylation (Y248) based homodimerization of RACK1A proteins”. The “rice RACK1A tyrosine (Y248) phosphorylation under salt stress” value (rice RACK1A) was “significantly inhibited rice RACK1A tyrosine phosphorylation”, the “salt stress-induced chlorosis of rice leaves” value (rice detached leaves; 60 μM compound and 250 mM NaCl, about 24° C.) was “protect the rice leaves from salt stress-induced chlorosis” and the “rice leaf appearance with compound alone” value (rice detached leaves; 60 μM compound without salt, vs untreated Leaf C) was “showed little difference from control Leaf C”. The “salt stress induced chlorosis of Arabidopsis plants” value (Arabidopsis plants) was “effective to allow the Arabidopsis plants to withstand the salt stress induced chlorosis”, the “Arabidopsis RACK1A tyrosine phosphorylation during heat stress” value (Arabidopsis RACK1A; 60 μM, 42° C. for six hours, western blot of leaf lysates) was “prevents Arabidopsis RACK1A tyrosine phosphorylation” and the “Arabidopsis RACK1A tyrosine phosphorylation at increased temperature” value (Arabidopsis RACK1A; 42° C. for three hours, western blot, antibody to phosphorylated Y248) was “effective to prevent Arabidopsis RACK1A tyrosine phosphorylation at increased temperature”. For the same compound, the “chloroplastic Cu—Zn SOD activity in rice leaves” value (chloroplastic Cu—Zn SOD) was “upregulates chloroplastic Cu—Zn SOD activity”.
